Experiments:
[1] = target: T1, human CB2 receptors (Homo sapiens, UniProt P34972); test: [3H]-CP-55,940 competition binding, hCB2 CHO membranes
T1 construct: host or cells: CHO cells
Procedure: CHO cells transfected with human CB1 or CB2 receptors (Perkin Elmer Life and Analytical Sciences, USA) were grown adherently and maintained in Ham’s F12 containing 10% fetal bovine serum, penicillin (100 U/ml), streptomycin (100 µg/ml), and Geneticin (G418, 0.4 mg/ml) at 37 °C in 5% CO2/95% air. To obtain membranes, cells were washed with PBS and scraped off with ice-cold hypotonic buffer (5 mM Tris HCl, 2 mM EDTA, pH 7.4). The cell suspension was homogenized with a Polytron and then centrifuged for 30 min at 40,000 × g. […]
Competition binding experiments were carried out incubating 0.5 nM [^3H]-CP-55,940 (Perkin Elmer Life and Analytical Sciences, USA) and different concentrations of the tested compounds for 90 or 60 min at 30 °C for CB1 or CB2 receptors, respectively. […] Non-specific binding was determined in the presence of 1 mM WIN 55,212–2 (Vincenzi et al. [2013]). Bound and free radioactivity were separated by filtering the assay mixture through Whatman GF/C glass fiber filters using a Brandel cell harvester (Brandel Instruments, Unterföhring, Germany). The filter-bound radioactivity was counted using a Packard Tri Carb 2810 TR scintillation counter (Perkin Elmer Life and Analytical Sciences, USA).
The protein concentration was determined according to a Bio-Rad method (500–0006; Bio-Rad Laboratories, Hercules, CA, USA) with bovine serum albumin as a reference standard. […]

[2] = test system: CD-1 male mice; test: Novel Object Recognition (NOR) test; type: in vivo, mouse
Procedure: This test was performed according to the method reported by Ennaceur and Delacour ([1988]) and Antunes and Biala (2012). The test was conducted in three phases: habituation, familiarization, and choice. Firstly, CD-1 mice (n = 10/group) were subjected to a 3-day habituation phase, conducted by placing each animal into the NOR chamber (a square open field 60 cm × 60 cm × 40 cm, dark PVC plastic box) located in a dimly lit (50 lx), sound-attenuated and acclimatized room. Mice were allowed to explore freely for 20 min/day. No objects were placed in the box during the habituation trial. Twenty-four hours (h) after last habituation section, the familiarization trial was conducted by placing the mouse in the field in which two identical objects (A, A) were positioned in the corners of the arena approximately 6 cm from the walls. Mice were placed at the mid-point of the wall opposite to the objects and allowed to explore them for 15 min. Fifteen minutes after the familiarization phase, mice were injected with vehicle or drug (MAM-2201 and AM-2201) and tested in two consecutive choice sections performed 2 h (short-term memory) and 24 h (long-term memory) after the drug administration. During the choice test at 2 h, one of the two familiar objects (A) was replaced with a new one (novel; B), different in shape, dimension, and color. Each mouse was then placed in the apparatus and left free to explore the objects (A and B) for 5 min. In the choice test given at 24 h, the mice explored the open field for 5 min in the presence of one familiar (A) and one novel object (C, different from B). Exploration was defined as the time (s) during which the mouse nose was in contact with the object or directed toward it at a distance ≤ 2 cm. Turning around the object was not considered as exploratory behavior.
All experiments were performed using the ANY-maze video tracking system (Ugo Basile, application version 4.99 g Beta) and subsequently analyzed by an observer blind to the mouse treatment and to which object was the novel one. Exploration time of familiar (A) and novel (B) object was detected. The novel object preference was quantified as the Recognition Index (RI) calculated as: RI=novelB-familiarA/novelB+familiarA. Using this metric, scores approaching zero reflects no preference (impairment of recognition memory), positive values reflect preference for the novel object (good recognition memory) while negative numbers reflect preference for the familiar (impairment of recognition memory). Moreover, the total exploration time (s) spent by the animal in the choice phase at 2 h (familiar A + novel B) and 24 h (familiar A + novel C) was calculated to investigate the effect of drugs on object exploration.
The objects to be discriminated by mice were 7 sets of novel and familiar objects of different material (plastic, glass, or ceramic), shape (cube, parallelepiped, and cylinder), dimension (height: 3–8 cm; width: 6–8), and color (light yellow, red and blue). The set of objects used in the familiarization phase (two identical A, A objects) was used in the subsequent vehicle/drug conditions at 2 and 24 h. The choice of object for novel or familiar was counterbalanced and the position of each object was also alternated between trials to avoid any misinterpretation of data. The object weight was such that they could not be displaced by mice. To avoid mice olfactory cues, objects and apparatus were carefully cleaned with a dilute (5%) ethanol solution and water between animal trials and also between familiarization and choice phase (executed 2 and 24 h after the familiarization phase). Animals that spent less than 10 s exploring both objects were excluded from the study and replaced by other animals.

[3] = target: CB1 receptors; parameters: method as in Howlett et al. [2002]; Hess et al. [2015]; settings: ref Howlett et al. [2002]; Hess et al. [2015]; read-out: CB1 receptor Ki; cited from earlier work

T1 sequence (P34972 whole entry): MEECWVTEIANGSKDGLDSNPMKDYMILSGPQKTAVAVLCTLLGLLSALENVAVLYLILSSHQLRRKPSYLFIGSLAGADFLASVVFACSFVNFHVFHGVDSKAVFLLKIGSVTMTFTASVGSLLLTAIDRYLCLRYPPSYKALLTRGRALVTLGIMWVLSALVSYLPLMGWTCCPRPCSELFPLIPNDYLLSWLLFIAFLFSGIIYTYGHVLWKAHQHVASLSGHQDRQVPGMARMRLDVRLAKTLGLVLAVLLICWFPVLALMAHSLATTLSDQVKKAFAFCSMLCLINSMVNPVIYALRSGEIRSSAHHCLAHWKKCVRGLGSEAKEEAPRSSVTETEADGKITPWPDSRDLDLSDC

Compound | Ki [1] [nM] | effect on Total Object Exploration (TOE) time ([2]; 0.1 mg/kg i.p.) | effect on Recognition Index (RI) ([2]; 0.1 mg/kg i.p., 2 h) | effect on Total Object Exploration (TOE) time ([2]; 1 mg/kg i.p., 2 and 24 h) | effect on Recognition Index (RI) ([2]; 1 mg/kg i.p., 2 h) | effect on Recognition Index (RI) ([2]; 0.1 and 1 mg/kg i.p., 24 h) | Ki [3] [nM]
Cc1ccc(C(=O)c2cn(CCCCCF)c3ccccc23)c2ccccc12 [MAM-2201, 1-[(5-fluoropentyl)-1H-indol-3-yl](4-methyl-1-naphthalenyl) methanone] | 10.3 ± 2.1 | did not alter | significantly reduced | impaired | negative score | significant decrease | 2.07 ± 0.82
O=C(c1cccc2ccccc12)c1cn(CCCCCF)c2ccccc12 [AM-2201, 1-[(5-Fluoropentyl)-1H-indol-3-yl](1-naphthylenyl) methanone] | 16.4 ± 1.5 | did not alter | RI reduction | impaired | reversal | significant reduction | 1

Source: PMC10272271, “MAM-2201 acute administration impairs motor, sensorimotor, prepulse inhibition, and memory functions in mice: a comparison with its analogue AM-2201” (Psychopharmacology, 2023)
